Measurements taken from ChEMBL document CHEMBL2163300, “Mitogen-activated protein kinase-activated protein kinase 2 (MAPKAP-K2) as an antiinflammatory target: discovery and in vivo activity of selective pyrazolo[1,5-a]pyrimidine inhibitors using a focused library and structure-based optimization approach” (J Med Chem, 2012).
≈ marks a conversion by molar mass, not a printed value. Values belong to the compound of their own block, whether it stands above or below them.

Tests used:
[1] = molecular target: Glycogen synthase kinase-3 beta (Homo sapiens, UniProt P49841); test: Inhibition of GSK3beta
[2] = Apparent permeability across apical to basolateral side in human Caco2 cells; type: ADME, cell-based; details: Caco-2
[3] = Intrinsic clearance in human liver microsomes; type: ADME, Microsome; details: read-out: CLH
[4] = molecular target: Cyclin-dependent kinase 2 (Homo sapiens, UniProt P24941)
Description: Inhibition of CDK2 after 60 mins using [33P]-gamma-ATP by liquid scintillation counter

[5] = molecular target: T1, Mitogen-activated protein kinase 14 (Homo sapiens, UniProt Q16539); test: Inhibition of P38alpha
T1 sequence (Q16539 whole entry): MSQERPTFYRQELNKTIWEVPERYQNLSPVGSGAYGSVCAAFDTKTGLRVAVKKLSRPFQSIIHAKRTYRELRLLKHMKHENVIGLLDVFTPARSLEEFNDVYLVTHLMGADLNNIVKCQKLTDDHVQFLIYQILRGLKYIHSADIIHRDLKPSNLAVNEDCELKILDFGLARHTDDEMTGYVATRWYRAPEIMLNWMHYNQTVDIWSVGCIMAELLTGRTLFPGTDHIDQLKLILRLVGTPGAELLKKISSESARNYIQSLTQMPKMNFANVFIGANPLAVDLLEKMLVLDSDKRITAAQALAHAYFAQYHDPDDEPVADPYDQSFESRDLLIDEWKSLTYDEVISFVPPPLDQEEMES

[6] = molecular target: T2, MAP kinase-activated protein kinase 2 (Homo sapiens, UniProt P49137); test: Inhibition of MAPKAP-K2 using KKLNRTLSVA as substrate and [33P]-gamma-ATP after 30 mins by liquid scintillation counter
T2 sequence (P49137 whole entry): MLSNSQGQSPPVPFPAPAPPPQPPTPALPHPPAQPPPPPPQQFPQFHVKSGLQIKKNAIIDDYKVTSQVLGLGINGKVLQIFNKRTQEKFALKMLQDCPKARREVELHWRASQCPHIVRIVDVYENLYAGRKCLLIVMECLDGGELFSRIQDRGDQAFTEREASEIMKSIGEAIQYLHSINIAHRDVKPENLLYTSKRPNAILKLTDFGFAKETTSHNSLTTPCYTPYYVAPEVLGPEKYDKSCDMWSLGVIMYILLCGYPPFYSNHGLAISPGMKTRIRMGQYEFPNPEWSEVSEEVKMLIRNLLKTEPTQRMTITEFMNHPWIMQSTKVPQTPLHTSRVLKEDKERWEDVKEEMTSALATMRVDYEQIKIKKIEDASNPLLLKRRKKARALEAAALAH

[7] = molecular target: Tyrosine-protein kinase Lck (Homo sapiens, UniProt P06239); test: Inhibition of LCK
[8] = molecular target: T2, MAP kinase-activated protein kinase 2; test: Competitive inhibition of MAPKAP-K2 using KKLNRTLSVA as substrate and [33P]-gamma-ATP by Lineweaver-Burke plot analysis
[9] = molecular target: Mitogen-activated protein kinase 9 (Homo sapiens, UniProt P45984); test: Inhibition of JNK2
Sequence of Mitogen-activated protein kinase 9 (P45984 whole entry): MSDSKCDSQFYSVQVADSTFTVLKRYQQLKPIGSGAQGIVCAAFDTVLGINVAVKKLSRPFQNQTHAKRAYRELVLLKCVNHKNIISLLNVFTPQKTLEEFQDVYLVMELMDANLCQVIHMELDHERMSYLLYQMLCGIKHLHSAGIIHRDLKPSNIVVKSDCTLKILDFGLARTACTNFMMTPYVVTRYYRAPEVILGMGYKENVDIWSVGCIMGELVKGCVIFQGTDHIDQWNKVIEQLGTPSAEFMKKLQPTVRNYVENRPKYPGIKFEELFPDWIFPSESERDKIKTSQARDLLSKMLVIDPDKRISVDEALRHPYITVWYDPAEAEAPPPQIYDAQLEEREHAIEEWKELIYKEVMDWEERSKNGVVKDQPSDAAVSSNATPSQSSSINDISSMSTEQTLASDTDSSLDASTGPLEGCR

[10] = Solubility of the compound at pH 7.4; type: physicochemical; details: buffer
[11] = molecular target: T3, Rho-associated protein kinase 2 (Homo sapiens, UniProt O75116); test: Inhibition of ROK2
Target sequence in this assay (O75116 whole entry): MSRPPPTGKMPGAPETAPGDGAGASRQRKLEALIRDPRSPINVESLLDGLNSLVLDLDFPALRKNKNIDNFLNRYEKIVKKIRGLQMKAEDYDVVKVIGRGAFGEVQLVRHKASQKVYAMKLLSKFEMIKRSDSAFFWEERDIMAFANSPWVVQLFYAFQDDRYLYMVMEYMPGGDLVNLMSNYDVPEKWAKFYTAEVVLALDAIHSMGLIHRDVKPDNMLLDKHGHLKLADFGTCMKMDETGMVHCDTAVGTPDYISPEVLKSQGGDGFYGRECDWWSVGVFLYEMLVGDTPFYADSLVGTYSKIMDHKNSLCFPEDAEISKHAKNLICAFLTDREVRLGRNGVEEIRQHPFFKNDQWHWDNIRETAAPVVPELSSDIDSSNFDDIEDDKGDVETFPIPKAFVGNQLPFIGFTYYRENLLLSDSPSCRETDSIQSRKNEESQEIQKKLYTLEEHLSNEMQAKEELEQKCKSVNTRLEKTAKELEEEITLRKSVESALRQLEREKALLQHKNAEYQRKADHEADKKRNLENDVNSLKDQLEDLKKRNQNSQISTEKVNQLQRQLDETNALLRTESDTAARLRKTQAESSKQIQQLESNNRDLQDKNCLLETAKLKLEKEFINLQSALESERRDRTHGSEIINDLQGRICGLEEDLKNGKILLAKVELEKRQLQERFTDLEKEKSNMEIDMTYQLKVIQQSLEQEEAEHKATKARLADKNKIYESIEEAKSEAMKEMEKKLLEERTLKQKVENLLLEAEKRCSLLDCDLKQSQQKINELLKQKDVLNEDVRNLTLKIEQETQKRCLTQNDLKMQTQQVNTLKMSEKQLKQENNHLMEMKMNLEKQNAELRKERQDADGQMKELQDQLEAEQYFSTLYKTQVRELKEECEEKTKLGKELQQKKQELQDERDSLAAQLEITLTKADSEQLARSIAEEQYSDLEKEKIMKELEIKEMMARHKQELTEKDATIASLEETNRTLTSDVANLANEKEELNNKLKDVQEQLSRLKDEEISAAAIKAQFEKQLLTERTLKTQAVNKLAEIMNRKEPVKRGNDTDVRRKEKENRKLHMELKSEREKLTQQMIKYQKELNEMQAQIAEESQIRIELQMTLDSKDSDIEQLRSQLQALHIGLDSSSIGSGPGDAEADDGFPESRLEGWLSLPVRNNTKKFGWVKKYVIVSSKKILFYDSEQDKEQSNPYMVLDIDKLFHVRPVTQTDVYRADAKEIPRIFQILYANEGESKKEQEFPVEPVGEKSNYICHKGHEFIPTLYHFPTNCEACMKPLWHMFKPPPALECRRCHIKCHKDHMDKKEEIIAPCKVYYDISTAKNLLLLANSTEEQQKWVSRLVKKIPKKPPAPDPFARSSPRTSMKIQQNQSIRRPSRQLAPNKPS

[12] = Inhibition of PHK
[13] = molecular target: MAP kinase-activated protein kinase 5 (Homo sapiens, UniProt Q8IW41); test: Inhibition of PRAK
[14] = Intrinsic clearance in mouse liver microsomes; type: ADME, Microsome; details: read-out: CLH
[15] = molecular target: MAP kinase-activated protein kinase 2 (Mus musculus, UniProt P49138); test: Inhibition of MAPKAP-K2 in mouse whole blood assessed as inhibition of LPS-induced TNFalpha production by ELISA
Serum [16] = test: Drug uptake in po dosed C57BL/6 mouse serum; type: ADME, organism-based; details: in vivo
[17] = Plasma protein binding in mouse; type: ADME, cell-free; details: read-out: PPB (converted)
[18] = molecular target: Protein kinase C gamma type (Homo sapiens) (UniProt P05129); test: Inhibition of human PKCgamma at 10 uM
[19] = molecular target: Cyclin-dependent kinase 1/cyclin B1 (Homo sapiens) (UniProt P06493+P14635); test: Inhibition of human Cdk1/cyclin B at 10 uM; type: protein-complex assay
[20] = molecular target: Mitogen-activated protein kinase 1 (Homo sapiens) (UniProt P28482); test: Inhibition of human ERK2 at 10 uM
[21] = molecular target: Mitogen-activated protein kinase 12 (Homo sapiens) (UniProt P53778); test: Inhibition of human p38gamma at 10 uM
[22] = molecular target: Serine/threonine-protein kinase Chk1 (Homo sapiens) (UniProt O14757); test: Inhibition of human CHK1 at 10 uM
[23] = molecular target: Dual specificity mitogen-activated protein kinase kinase 4 (Mus musculus) (UniProt P47809); test: Inhibition of mouse MKK4 at 10 uM
[24] = molecular target: Protein kinase C alpha type (Homo sapiens) (UniProt P17252); test: Inhibition of human PKCalpha at 10 uM
[25] = molecular target: Ribosomal protein S6 kinase alpha-3 (Homo sapiens) (UniProt P51812); test: Inhibition of human RSK2 at 10 uM
[26] = Total clearance in mouse at 1 mg/kg, iv; type: ADME, organism-based; design: dose 1 mg/kg, route intravenous; details: in vivo
[27] = molecular target: Dual specificity mitogen-activated protein kinase kinase 7 (Homo sapiens) (UniProt O14733); test: Inhibition of human MKK7beta at 10 uM
Homo sapiens = organism: Homo sapiens; test: Inhibition of human PKA at 10 uM
Rattus norvegicus [28] = organism: Rattus norvegicus; test: Inhibition of rat CAMK2 at 10 uM
[29] = molecular target: T1, Mitogen-activated protein kinase 14; test: Inhibition of human p38alpha at 10 uM
Mus musculus [30] = test: Antiinflammatory activity in po dosed C57BL/6 mouse assessed as decrease in LPS-induced serum TNFalpha level administered 30 mins prior to LPS challenge measured 60 mins post LPS challenge by ELISA; type: functional, organism-based
Serum [31] = test: Drug level in C57BL/6 mouse serum at 30 mg/kg, po; type: ADME, organism-based; design: dose 30 mg/kg, route oral; details: in vivo, read-out: Drug uptake
[32] = molecular target: Mitogen-activated protein kinase 13 (Homo sapiens) (UniProt O15264); test: Inhibition of human p38delta at 10 uM
[33] = AUC (0 to 24 hrs) in mouse at 1 mg/kg, po; type: ADME, organism-based; design: time < 24 hr, dose 1 mg/kg, route oral; details: plasma
[34] = molecular target: MAP kinase-activated protein kinase 5 (Homo sapiens) (UniProt Q8IW41); test: Inhibition of human PRAK at 10 uM
[35] = molecular target: Receptor-type tyrosine-protein kinase FLT3 (Homo sapiens) (UniProt P36888); details: 10 uM
Description: Inhibition of human FLT3 at 10 uM

Mus musculus [36] = test: Antiinflammatory activity in C57BL/6 mouse assessed as LPS-induced serum TNFalpha level at 100 mg/kg, po administered 30 mins prior to LPS challenge measured 60 mins post LPS challenge by ELISA relative to vehicle-treated control; type: functional
[37] = molecular target: Ribosomal protein S6 kinase beta-1 (Homo sapiens) (UniProt P23443); test: Inhibition of human p70S6K at 10 uM
[38] = molecular target: Mitogen-activated protein kinase 8 (Homo sapiens) (UniProt P45983); test: Inhibition of human JNK1alpha1 at 10 uM
[39] = molecular target: Tyrosine-protein kinase Fes/Fps (Homo sapiens) (UniProt P07332); details: 10 uM
Sequence of Tyrosine-protein kinase Fes/Fps (Homo sapiens) (P07332 whole entry): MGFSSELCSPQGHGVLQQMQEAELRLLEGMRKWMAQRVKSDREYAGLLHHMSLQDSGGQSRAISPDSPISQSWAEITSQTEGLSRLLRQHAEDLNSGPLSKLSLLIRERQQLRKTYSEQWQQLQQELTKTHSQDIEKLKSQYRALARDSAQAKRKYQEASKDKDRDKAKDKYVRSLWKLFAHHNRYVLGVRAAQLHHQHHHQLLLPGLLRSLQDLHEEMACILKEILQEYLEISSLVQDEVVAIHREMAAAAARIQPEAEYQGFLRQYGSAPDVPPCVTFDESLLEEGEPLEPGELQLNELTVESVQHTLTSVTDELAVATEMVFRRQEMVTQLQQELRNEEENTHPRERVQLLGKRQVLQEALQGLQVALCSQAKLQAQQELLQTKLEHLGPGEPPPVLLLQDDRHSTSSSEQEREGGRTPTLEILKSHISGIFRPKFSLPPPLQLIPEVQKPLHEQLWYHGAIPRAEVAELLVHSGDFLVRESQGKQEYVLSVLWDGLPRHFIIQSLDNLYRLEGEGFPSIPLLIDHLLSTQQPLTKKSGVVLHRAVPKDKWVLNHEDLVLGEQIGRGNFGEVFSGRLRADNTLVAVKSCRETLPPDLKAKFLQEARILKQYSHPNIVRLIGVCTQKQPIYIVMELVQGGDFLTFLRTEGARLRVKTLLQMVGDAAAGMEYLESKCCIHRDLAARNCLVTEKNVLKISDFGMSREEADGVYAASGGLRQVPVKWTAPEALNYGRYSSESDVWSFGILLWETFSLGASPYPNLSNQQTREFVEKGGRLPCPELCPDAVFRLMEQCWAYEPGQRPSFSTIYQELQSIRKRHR
Description: Inhibition of human FES at 10 uM

[40] = Half life in mouse at 1 mg/kg, iv; type: ADME, organism-based; design: dose 1 mg/kg, route intravenous; details: in vivo
Serum [41] = test: Drug level in C57BL/6 mouse serum at 100 mg/kg, po; type: ADME, organism-based; design: dose 100 mg/kg, route oral; details: in vivo, read-out: Drug uptake
Serum [42] = test: Drug level in C57BL/6 mouse serum at 10 mg/kg, po; type: ADME, organism-based; design: dose 10 mg/kg, route oral; details: in vivo, read-out: Drug uptake
[43] = molecular target: Dual specificity mitogen-activated protein kinase kinase 1 (Homo sapiens) (UniProt Q02750); test: Inhibition of human MEK1 at 10 uM
Sequence of Dual specificity mitogen-activated protein kinase kinase 1 (Homo sapiens) (Q02750 whole entry): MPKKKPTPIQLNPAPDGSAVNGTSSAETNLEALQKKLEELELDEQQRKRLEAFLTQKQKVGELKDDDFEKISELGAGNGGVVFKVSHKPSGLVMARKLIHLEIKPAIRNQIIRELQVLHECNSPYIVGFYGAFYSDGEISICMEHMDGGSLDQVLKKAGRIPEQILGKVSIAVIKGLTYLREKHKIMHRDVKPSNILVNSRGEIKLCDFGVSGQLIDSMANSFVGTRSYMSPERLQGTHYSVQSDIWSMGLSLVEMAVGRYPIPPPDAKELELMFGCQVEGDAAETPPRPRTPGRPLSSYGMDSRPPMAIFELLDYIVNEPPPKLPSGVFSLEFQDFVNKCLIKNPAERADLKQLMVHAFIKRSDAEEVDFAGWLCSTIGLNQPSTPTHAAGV

Serum [44] = test: Drug level in C57BL/6 mouse serum at 60 mg/kg, po; type: ADME, organism-based; design: dose 60 mg/kg, route oral; details: in vivo, read-out: Drug uptake
[45] = molecular target: Dual specificity mitogen-activated protein kinase kinase 6 (Homo sapiens) (UniProt P52564); test: Inhibition of human MKK6 at 10 uM
Rattus norvegicus [46] = organism: Rattus norvegicus; test: Inhibition of rat AMPK at 10 uM
[47] = molecular target: Tyrosine-protein kinase Yes (Homo sapiens) (UniProt P07947); details: 10 uM
Sequence of Tyrosine-protein kinase Yes (Homo sapiens) (P07947 2-543 limits assumed): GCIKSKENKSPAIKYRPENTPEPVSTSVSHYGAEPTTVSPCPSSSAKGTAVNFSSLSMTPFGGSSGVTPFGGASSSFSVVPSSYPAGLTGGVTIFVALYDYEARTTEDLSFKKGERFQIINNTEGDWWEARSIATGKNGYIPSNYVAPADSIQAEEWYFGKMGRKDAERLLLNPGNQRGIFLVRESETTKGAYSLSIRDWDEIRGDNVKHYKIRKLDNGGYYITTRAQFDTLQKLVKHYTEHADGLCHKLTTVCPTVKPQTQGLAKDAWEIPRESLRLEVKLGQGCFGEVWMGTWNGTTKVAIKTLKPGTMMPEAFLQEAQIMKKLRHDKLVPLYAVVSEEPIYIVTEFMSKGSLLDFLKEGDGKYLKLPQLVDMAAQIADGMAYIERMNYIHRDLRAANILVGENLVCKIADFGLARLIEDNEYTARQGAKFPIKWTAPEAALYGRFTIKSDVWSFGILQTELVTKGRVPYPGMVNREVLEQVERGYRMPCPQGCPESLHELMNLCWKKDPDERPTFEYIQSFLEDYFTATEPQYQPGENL
Description: Inhibition of human YES at 10 uM

[48] = Oral bioavailability in mouse at 1 mg/kg; type: ADME, organism-based; details: in vivo
THP-1 = test: Cytotoxicity against human THP1 cells assessed as cell viability by MTS assay; type: cell-based
[49] = molecular target: T3, Rho-associated protein kinase 2; test: Inhibition of human ROCK2 at 10 uM
Target sequence in this assay (O75116 whole entry, looked up): as the sequence (O75116 whole entry) above

[50] = molecular target: RAC-alpha serine/threonine-protein kinase (Homo sapiens) (UniProt P31749); test: Inhibition of human PKBalpha at 10 uM
Sequence of RAC-alpha serine/threonine-protein kinase (Homo sapiens) (P31749 whole entry): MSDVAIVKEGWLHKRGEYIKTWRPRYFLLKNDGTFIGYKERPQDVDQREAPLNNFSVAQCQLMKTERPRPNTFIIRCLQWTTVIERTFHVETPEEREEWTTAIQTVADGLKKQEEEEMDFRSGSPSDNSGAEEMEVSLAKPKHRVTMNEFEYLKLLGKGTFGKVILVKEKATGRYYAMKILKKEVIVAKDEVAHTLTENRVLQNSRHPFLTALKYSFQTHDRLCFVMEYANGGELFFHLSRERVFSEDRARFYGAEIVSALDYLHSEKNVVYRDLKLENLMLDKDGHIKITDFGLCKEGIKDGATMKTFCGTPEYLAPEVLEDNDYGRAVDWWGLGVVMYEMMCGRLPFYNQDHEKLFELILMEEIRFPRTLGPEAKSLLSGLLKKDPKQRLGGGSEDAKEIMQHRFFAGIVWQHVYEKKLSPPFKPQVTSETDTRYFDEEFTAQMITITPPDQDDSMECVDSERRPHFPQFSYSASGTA

[51] = molecular target: Inhibitor of nuclear factor kappa-B kinase subunit beta (Homo sapiens) (UniProt O14920); test: Inhibition of human IKKbeta at 10 uM
[52] = molecular target: 3-phosphoinositide-dependent protein kinase 1 (Homo sapiens) (UniProt O15530); test: Inhibition of human PDK1 at 10 uM

- IC50 [1]: 23 µM
- Papp A→B [2]: 7.1 ×10⁻⁶ cm/s
- microsomal CLint [3]: < 10 µL/min/mg
- IC50 [4]: 0.055 µM
- IC50 [5]: > 100 µM
- IC50 [6]: 1.3 µM
- IC50 [7]: 300 µM
- Ki [8]: 6 µM
- IC50 [9]: 25 µM
- solubility [10]: 75 µg/mL (≈ 200 µM)
- IC50 [11]: 14 µM
- IC50 [12]: 3 µM
- IC50 [13]: 11 µM
- microsomal CLint [14]: 59 µL/min/mg
SMILES: N[C@H]1CC[C@H](Nc2cc(Nc3ccc(F)c(Cl)c3)n3nccc3n2)CC1

SMILES: CCOc1ccc(Nc2c(C)c(N[C@H]3CCCNC3)nc3ccnn23)cc1
- IC50 [15]: 5 µM
- Drug uptake (Serum [16]): Dose-dependent effect
- fraction unbound [17]: 0.114
- inhibition [18]: -5%
- Papp A→B [2]: 28.3 ×10⁻⁶ cm/s
- inhibition [19]: 12%
- inhibition [20]: 7%
- microsomal CLint [3]: < 10 µL/min/mg
- inhibition [21]: -2%
- inhibition [22]: 30%
- inhibition [23]: 15%
- inhibition [24]: 5%
- inhibition [25]: 9%
- clearance [26]: 68.3 mL/min/kg
- inhibition [27]: 26%
- inhibition (Homo sapiens): 0%
- inhibition (Rattus norvegicus [28]): 41%
- inhibition [29]: 4%
- Activity (Mus musculus [30]): Dose-dependent effect
- concentration (Serum [31]): 5 µM
- inhibition [32]: 3%
- AUC(0-t) at 24 h [33]: 0.438 µM·h
- inhibition [34]: 62%
- inhibition [35]: > 75%
- Activity (Mus musculus [36]): 14%
- inhibition [37]: -1%
- inhibition [38]: 0%
- inhibition [39]: > 75%
- half-life [40]: 2.2 h
- concentration (Serum [41]): 10 µM
- concentration (Serum [42]): 2 µM
- inhibition [43]: 19%
- concentration (Serum [44]): 8 µM
- inhibition [45]: 24%
- inhibition (Rattus norvegicus [46]): 35%
- inhibition [47]: > 75%
- bioavailability [48]: 66%
- IC50 (THP-1): 74 µM
- inhibition [49]: 23%
- solubility [10]: 70 µg/mL (≈ 191 µM)
- inhibition [50]: 3%
- inhibition [51]: 7%
- inhibition [52]: -9%
- microsomal CLint [14]: 11 µL/min/mg
